Assay results: patent publication US10294237B2, “Bicyclic heterocyclic amide derivative” (Sumitomo Dainippon Pharma Co., Ltd., priority 2015, dated 2019)
pIC50: −log10 of the molar value.

What was measured:
HCT-116 cells [1] = experiment: Test for inhibiting sphere-forming ability of cancer cells; format: cell-based; conditions: HCT-116 spheres, non-adherent, serum-free, 4 days, CellTiter-Glo, read-out: IC50 (Sphere IC50 value; concentration for 50% inhibition of cell proliferation)
Procedure: (§1) The reliable methods established for measuring the self-renewal ability of cells which is one of the CSC's properties include a method for measuring the sphere-forming ability of cancer cells in non-adherent condition in the absence of serum (Cancer Res 65, 5506-5511 (2005)). HCT-116 cells were available from the American Type Culture Collection (ATCC). HCT-116 cells were cultured at 37° C. and 5% CO2 using the McCoy's 5a medium containing 10% fetal bovine serum (FBS) and 1% penicillin/streptomycin. HCT-116 cells were seeded in a 384 Well Black Clear Bottom Ultra-Low Attachment Microplate (Corning Cat. No. 3827) in an amount of 350-800 cells/well using the DMEM/F12 medium containing 2% B27 supplement (GIBCO), 20 ng/mL epidermal growth factor (EGF) (peprotech), 10 ng/mL basic fibroblast growth factor (bFGF) (peprotech), 5 μg/mL insulin (Sigma), and 1% penicillin/streptomycin. The test compounds were added into each well to adjust the final concentration of DMSO to 0.1%, and the cells were cultured for 4 days. The number of viable cells in each well was then measured with CellTiter-Glo® Luminescent Cell Viability Assay (Promega) to calculate the concentration of each test compound for 50% inhibition of cell proliferation (Sphere IC50 value; μmol/L).
The experiment of Test Example 1 was performed for the compounds of each Example. The concentrations of each test compound for 50% inhibition of cell profeliration (Sphere IC50 value; μmol/L) are shown in the following Table.

HCT-116 cells [2] = experiment: Test for inhibiting sphere-forming ability of cancer cells (in the presence of BSA); format: cell-based; conditions: HCT-116 spheres, non-adherent, 5% BSA, 4 days, CellTiter-Glo, read-out: IC50 (Sphere IC50 value; concentration for 50% inhibition of cell proliferation)
Procedure: as §1, with “HCT-116” for “The reliable methods established for measuring the self-renewal ability of cells which is one of the CSC's properties include a method for measuring the sphere-forming ability of cancer cells in non-adherent condition in the absence of serum (Cancer Res 65, 5506-5511 (2005)). HCT-116”, “(Sigma), 5% bovine serum albumin (BSA),” for “(Sigma),”
The experiment of Test Example 2 was performed for the compounds of each Example. The concentrations of each test compound for 50% inhibition of cell profeliration (Sphere IC50 value; μmol/L) are shown in the following Table.

pIC50 (HCT-116 cells [1])	pIC50 (HCT-116 cells [2])	pIC50 (HCT-116 cells [1]; Homo sapiens, 96 h)	pIC50 (HCT-116 cells [2]; Homo sapiens, HCT-116, 96 h)	Compound
6.14	6.20			O=C(Nc1cn(Cc2ccc3c(c2)OCO3)cn1)c1cnc2c(c1)CCNC2 [Example 119]
		6.11	6.24	O=C(Nc1cn(Cc2cccc(Cl)c2)cn1)c1ccc2c(n1)CCNC2 [Example 44]
		7.10	7.22	O=C(Nc1cn(Cc2ccc(F)c(F)c2)cn1)c1cnc2c(c1)CCNC2 [Example 48, N-[1-(3,4-difluorobenzyl)-1H-imidazol-4-yl]-5,6,7,8-tetrahydro-1,7-naphthyridine-3-carboxamide]
		7.15	7.05	O=C(/C=C/c1ccc2c(c1)OCO2)Nc1cn(Cc2cccc(Cl)c2)cn1 [Example 38]
6.25	6.25			COc1cccc(Cn2cnc(NC(=O)c3ccc4c(c3)CCNC4)c2)c1 [Example 78]
		6.41	6.21	O=C(Nc1cn(Cc2cc(F)c(F)c(F)c2)cn1)c1cc2c(cc1F)CNCC2 [Example 7]
		6.21	6.14	O=C(Nc1cn(Cc2cccc(C(F)(F)F)c2)cn1)c1cc2c(s1)CNCC2 [Example 17]
		6.17	6.15	O=C(Nc1cn(Cc2cccc(C(F)(F)F)c2)cn1)c1ccc2c(c1)CNCC2 [Example 18]
6.14	6.27			O=C(Nc1cn(Cc2ccc(C(F)(F)F)cc2)cn1)c1ccc2c(c1)CCNC2 [Example 83]
6.02	5.21			Cc1ccc(Cn2cnc(NC(=O)c3ccc4c(c3)CCNC4)c2)cc1 [Example 81]
		6.04	6.10	O=C(/C=C/c1ccc2c(c1)OCCO2)Nc1cn(Cc2cccc(Cl)c2)cn1 [Example 39]
		7.15	6.23	Cc1ccc(Cn2cnc(NC(=O)c3ccc4c(c3)CCNC4)c2)cc1C(F)(F)F [Example 97, N-{1-[4-methyl-3-(trifluoromethyl)benzyl]-1H-imidazol-4-yl}-1,2,3,4-tetrahydroisoquinoline-6-carboxamide]
7.10	7.30			O=C(Nc1cn(CC2CCCCC2)cn1)c1cnc2c(c1)CCNC2 [Example 55]
		6.30	6.29	COc1cc(Cn2cnc(NC(=O)c3ccc4c(c3)CCNC4)c2)cc(C(F)(F)F)c1 [Example 98]
		6.37	6.34	O=C(Nc1cn(Cc2cc(F)c(F)c(F)c2)cn1)c1ccc2c(c1F)CCNC2 [Example 14]
7.15	6.80			O=C(Nc1cn(CCC2CCCCC2)cn1)c1cnc2c(c1)CCNC2 [Example 56]
		7.10	6.77	O=C(Nc1cc2c(cc1F)CNCC2)c1cn(Cc2cc(F)c(F)c(F)c2)cn1 [Example 1, N-(7-fluoro-1,2,3,4-tetrahydroisoquinolin-6-yl)-1-(3,4,5-trifluorobenzyl)-1H-imidazole-4-carboxamide]
		5.38	5.21	O=C(Nc1cn(Cc2ccc3ccccc3c2)cn1)c1ccc2c(c1)CCNC2 [Example 103]
6.12	6.17			O=C(Nc1cn(CCCc2ccccc2)cn1)c1cnc2c(c1)CCNC2 [Example 69]
		7.22	7.05	O=C(Nc1cn(Cc2cc(F)c(F)c(F)c2)cn1)c1ccc2c(c1)CCNC2 [Example 25, N-[1-(3,4,5-Trifluorobenzyl)-1H-imidazol-4-yl]-(1,2,3,4-tetrahydroisoquinoline-6-carboxamide ditrifluoroacetate]
		6.16	5.22	O=C(Nc1cn(Cc2cccc(C(F)(F)F)c2)cn1)c1ccc2c(c1)CCCN2 [Example 27]
		6.14	6.27	O=C(Nc1cn(Cc2cccc(Cl)c2)cn1)c1cnc2c(c1)CCNC2 [Example 43]
		7.30	6.18	O=C(Nc1cn(Cc2cccc(Oc3ccccc3)c2)cn1)c1cnc2c(c1)CCNC2 [Example 50, N-[1-(3-phenoxybenzyl)-1H-imidazol-4-yl]-5,6,7,8-tetrahydro-1,7-naphthyridine-3-carboxamide]

pIC50 (HCT-116 cells [1])	pIC50 (HCT-116 cells [2])	pIC50 (HCT-116 cells [1]; Homo sapiens, 96 h)	pIC50 (HCT-116 cells [2]; Homo sapiens, HCT-116, 96 h)	Compound
7.10	7.15			O=C(Nc1cn(Cc2cccc(F)c2)cn1)c1cnc2c(c1)CCNC2 [Example 120]
		> 8.00	7.52	O=C(Nc1cn(Cc2ccc(Cl)c(C(F)(F)F)c2)cn1)c1cnc2c(c1)CCNC2 [Example 54, N-{1-[4-chloro-3-(trifluoromethyl)benzyl]-1H-imidazol-4-yl}-5,6,7,8-tetrahydro-1,7-naphthyridine-3-carboxamide]
		7.10	7.30	O=C(Nc1cc2c(cn1)CNCC2)c1cn(Cc2ccc(F)c(F)c2)cn1 [Example 35, 1-(3,4-difluorobenzyl)-N-(5,6,7,8-tetrahydro-2,7-naphthyridin-3-yl)-1H-imidazole-4-carboxamide]
		8.00	7.70	O=C(/C=C/c1ccc2c(c1)CCO2)Nc1cn(Cc2cccc(Cl)c2)cn1 [Example 41]
5.30	6.02			N#Cc1cccc(Cn2cnc(NC(=O)c3ccc4c(c3)CCNC4)c2)c1 [Example 88]
6.17	6.23			Cc1ccccc1Cn1cnc(NC(=O)c2ccc3c(c2)CCNC3)c1 [Example 76]
6.21	6.23			O=C(Nc1cn(CC2CCCCC2)cn1)c1ccc2c(c1)CCNC2 [Example 85]
		6.44	6.26	O=C(Nc1cn(Cc2cccc(C(F)(F)F)c2)cn1)c1ccc2c(c1F)CCNC2 [Example 15]
		7.15	7.05	O=C(Nc1cn(Cc2ccc(F)c(C(F)(F)F)c2)cn1)c1ccc2c(c1)CCNC2 [Example 92, N-{1-[4-fluoro-3-(trifluoromethyl)benzyl]-1H-imidazol-4-yl}-1,2,3,4-tetrahydroisoquinoline-6-carboxamide]
6.21	6.43			O=C(Nc1cn(Cc2ccccc2)cn1)c1cnc2c(c1)CCNC2 [Example 59]
		6.17	6.24	O=C1CCc2cc(C(=O)Nc3cn(Cc4cccc(C(F)(F)F)c4)cn3)ccc2C1 [Example 110, 6-Oxo-N-{1-[3-(trifluoromethyl)benzyl]-1H-imidazol-4-yl}-5,6,7,8-tetrahydronaphthalene-2-carboxamide]
6.22	6.24			O=C(Nc1cn(Cc2ccc(Cl)cc2)cn1)c1ccc2c(c1)CCNC2 [Example 87]
		6.15	5.20	O=C(/C=C/c1ccc2c(c1)CCNC2)Nc1cn(Cc2cc(F)c(F)c(F)c2)cn1 [Example 112]
6.15	5.26			O=C(Nc1cn(Cc2ccc3ccccc3c2)cn1)c1cnc2c(c1)CCNC2 [Example 66]
		5.23	5.29	CN(C)c1cccc(Cn2cnc(NC(=O)c3ccc4c(c3)CCNC4)c2)c1 [Example 105]
		7.22	7.15	O=C(Nc1cn(Cc2cc(Cl)cc(OC(F)(F)F)c2)cn1)c1ccc2c(c1)CCNC2 [Example 100, N-{1-[3-chloro-5-(trifluoromethoxy)benzyl]-1H-imidazol-4-yl}-1,2,3,4-tetrahydroisoquinoline-6-carboxamide]
5.46	5.26			O=C(Nc1cn(Cc2ccccc2F)cn1)c1ccc2c(c1)CCNC2 [Example 72]
6.60	7.00			Cc1ccccc1Cn1cnc(NC(=O)c2cnc3c(c2)CCNC3)c1 [Example 60]
		6.18	6.31	O=C(Nc1cc2c(cc1F)CNCC2)c1cn(Cc2ccc(F)c(F)c2)cn1 [Example 2]
		7.05	6.23	O=C1CCc2cc(C(=O)Nc3cn(Cc4cc(F)c(F)c(F)c4)cn3)ccc2N1 [Example 37]
		7.22	6.70	O=C(Nc1cn(Cc2cc(Br)cc(Br)c2)cn1)c1ccc2c(c1)CCNC2 [Example 96]
6.31	6.31			O=C(Nc1cn(Cc2cc(F)cc(F)c2)cn1)c1ccc2c(c1)CCNC2 [Example 74]
